Each structure is given as a SMILES string. Counter-ions that a name gives are not always drawn. Non-standard residues stand in square brackets, D forms with d. Residues, ends and D or L forms follow the SMILES beside them. *: point of attachment. Sta = CC(C)C[C@H](N)[C@@H](O)CC(=O)O; Isovaleryl = CC(C)CC(=O)*

The subject of the first assay is hPSC-SCs.
Conditions: not given
For the compound `C[N+]1(CCCCC[N+]2(C)CCCC2)CCCC1.O=C([O-])C(O)C(O)C(=O)O.O=C([O-])C(O)C(O)C(=O)O` [Pentolinium bitartrate], the z.score.t was determined as 0.2038.
In the case of `CC(C)CC(=O)N[C@H](C(=O)N[C@H](C(=O)N[C@@H](CC(C)C)[C@@H](O)CC(=O)N[C@@H](C)C(=O)N[C@@H](CC(C)C)[C@@H](O)CC(=O)O)C(C)C)C(C)C` [Pepstatin A] (Isovaleryl-VV[Sta]A[Sta]-OH), the z.score.t was −1.319.
`CC(COc1ccccc1)N(CCCl)Cc1ccccc1` (stereo not shown) [Phenoxybenzamine hydrochloride]: the z.score.t is reported as 0.03421.
Still for that read-out and setting: for `CC(N)C(O)c1ccccc1` (stereo not shown) [Phenylpropanolamine hydrochloride] the value was −0.8304.
On the same count and under the same terms, for `C=C(C)[C@@H]1[C@H]2OC(=O)[C@@H]1[C@]1(O)C[C@H]3O[C@]34C(=O)O[C@H]2[C@]14C` [Picrotoxinin] the value was 1.281; for `CCN1CCCC(OC(=O)C(c2ccccc2)c2ccccc2)C1` (stereo not shown) [Piperidolate hydrochloride], −1.025.
The compound `COc1cc(/C=C/C(=O)N2CCC=CC2=O)cc(OC)c1OC` [Piperlongumine] displayed a z.score.t of −2.024.
Compound `COc1cc([C@@H]2c3cc4c(cc3[C@H](O)[C@H]3COC(=O)[C@H]23)OCO4)cc(OC)c1OC` [Podophyllotoxin] came in with a z.score.t of −2.152.
Turning to `C[n+]1ccccc1/C=N/O` [Pralidoxime chloride], the z.score.t is −0.411.

The assay is the same for the next values; noted with them: HTS viability of hPSC-SCs in the presence of 30 mM glucose; Prestwick library; Table S4.
With `CC(C)(C)NC[C@H](O)COc1ccccc1C1CCCC1` [Penbutolol sulfate], the z.score.t was −0.9376.
As for `N=C(N)c1ccc(OCCCCCOc2ccc(C(=N)N)cc2)cc1` [Pentamidine isethionate], the z.score.t was −0.8129.
In the case of `O=C(O)CN(CCN(CC(=O)O)CC(=O)O)CCN(CC(=O)O)CC(=O)O` [Pentetic acid], the z.score.t is −0.3461.
Take `CC(=O)CCCCn1c(=O)c2c(ncn2C)n(C)c1=O` [Pentoxifylline]: the z.score.t was 1.045.
In the case of `C1CCc2nnnn2CC1` [Pentylenetetrazole], the z.score.t is 1.171.
Same read-out and setting: for `CCCN1C[C@H](CSC)C[C@@H]2c3cccc4[nH]cc(c34)C[C@H]21` [Pergolide mesylate] the value was 0.1298.
As for `C1CCC(C(CC2CCCCN2)C2CCCCC2)CC1` (stereo not shown) [Perhexiline maleate], the z.score.t is reported as −1.682.
As for `CCC[C@H](N[C@@H](C)C(=O)N1[C@H](C(=O)O)C[C@@H]2CCCC[C@@H]21)C(=O)OCC` [Perindopril], the z.score.t is given as 2.067.
With `OCCN1CCN(CCCN2c3ccccc3Sc3ccc(Cl)cc32)CC1` [Perphenazine], the z.score.t is reported as −1.746.
In the case of `CCOc1ccc(NC(C)=O)cc1` [Phenacetin], the z.score.t was 0.8023.
In the case of `Nc1ccc(/N=N/c2ccccc2)c(N)n1` [Phenazopyridine hydrochloride], the z.score.t turned out to be 1.999.
As to `NNCCc1ccccc1` [Phenelzine sulfate], the z.score.t worked out at 0.852.
Consider `CC(Oc1ccccc1)C(=O)N[C@@H]1C(=O)N2[C@@H]1SC(C)(C)[C@@H]2C(=O)O` (stereo partly shown) [Phenethicillin potassium salt], for which the z.score.t is reported as 0.7158.
With `[H]/N=C(/N)N/C(=N/[H])NCCc1ccccc1` [Phenformin hydrochloride], the z.score.t was 0.9109.
The same measure, in the same setting: for `O=C1c2ccccc2C(=O)C1c1ccccc1` [Phenindione] the value was 0.7312; for `CN(C)CCC(c1ccccc1)c1ccccn1` (stereo not shown) [Pheniramine maleate], −0.09426; for `CN1C(=O)CC(c2ccccc2)C1=O` (stereo not shown) [Phensuximide], 1.669.
Take `Cc1ccc(N(CC2=NCCN2)c2cccc(O)c2)cc1` [Phentolamine hydrochloride]: the z.score.t is given as −0.1241.
Turning to `O=C(O)c1ccccc1C(=O)Nc1ccc(S(=O)(=O)Nc2nccs2)cc1` [Phthalylsulfathiazole], the z.score.t is −1.317.
Regarding `COc1ccc(C(=O)NCc2cccnc2)cc1C(=O)NCc1cccnc1` [Picotamide monohydrate], the z.score.t is −0.04944.
On the same count and under the same terms, for `CC[C@@H]1C(=O)OC[C@@H]1Cc1cncn1C` [Pilocarpine nitrate] the value was 1.139.
For `CN1CCC(=C2c3ccccc3Sc3ccccc32)CC1` [Pimethixene maleate], the z.score.t is listed as −1.233.
For the compound `O=c1[nH]c2ccccc2n1C1CCN(CCCC(c2ccc(F)cc2)c2ccc(F)cc2)CC1` [Pimozide], the z.score.t was −1.173.
Regarding `CC(N/C(=N\C#N)Nc1ccncc1)C(C)(C)C` (stereo not shown) [Pinacidil], the z.score.t is −0.03449.
For `CC(C)NCC(O)COc1cccc2[nH]ccc12` (stereo not shown) [Pindolol], the z.score.t stood at 0.2038.
As to `CCn1cc(C(=O)O)c(=O)c2cnc(N3CCNCC3)nc21` [Pipemidic acid], the z.score.t worked out at 0.4318.
Take `CC[N+]1(C)CCCC(OC(=O)C(O)(c2ccccc2)c2ccccc2)C1` (stereo not shown) [Pipenzolate bromide]: the z.score.t worked out at 0.4318.
In the case of `CC(=O)c1ccc2c(c1)N(CCCN1CCC(CCO)CC1)c1ccccc1S2` [Piperacetazine], the z.score.t was −1.148.
For the compound `CCN1CCN(C(=O)N[C@@H](C(=O)N[C@@H]2C(=O)N3[C@@H]2SC(C)(C)[C@@H]3C(=O)O)c2ccccc2)C(=O)C1=O` [Piperacillin sodium salt], the z.score.t is recorded as 0.8465.
Regarding `O=C(/C=C/C=C/c1ccc2c(c1)OCO2)N1CCCCC1` [Piperine], the z.score.t was −0.1003.
Same read-out and setting: the result for `NC(=O)CN1CCCC1=O` [Piracetam] reads 1.595; that for `Cc1nc2ccccn2c(=O)c1CCN1CCC(C(=O)c2ccc(F)cc2)CC1` [Pirenperone], −0.07901.
Turning to `CN1CCN(CC(=O)N2c3ccccc3C(=O)Nc3cccnc32)CC1` [Pirenzepine dihydrochloride], the z.score.t is recorded as −0.07933.
Still for that read-out and setting: for `NS(=O)(=O)c1cc(C(=O)O)cc(N2CCCC2)c1Oc1ccccc1` [Piretanide] the value was −0.9376; for `c1cnc(N2CCN(Cc3ccc4c(c3)OCO4)CC2)nc1` [Piribedil hydrochloride], −1.291; for `CCn1cc(C(=O)O)c(=O)c2cnc(N3CCCC3)nc21` [Piromidic acid], 0.453.
Same read-out and setting: for `CN1C(C(=O)Nc2ccccn2)=C(O)c2ccccc2S1(=O)=O` [Piroxicam] the value was −0.4161.
As for `CC(C)(C)C(=O)OCOC(=O)[C@@H]1N2C(=O)[C@@H](NC(=O)[C@H](N)c3ccccc3)[C@H]2SC1(C)C` [Pivampicillin], the z.score.t was −0.2187.
On to `CC(C)(C)C(=O)OCOC(=O)[C@@H]1N2C(=O)[C@@H](/N=C/N3CCCCCC3)[C@H]2SC1(C)C` [Pivmecillinam hydrochloride], for which the z.score.t came to 0.0827.
As to `CC(=O)Nc1ccc(OCC(O)CNC(C)C)cc1` (stereo not shown) [Practolol], the z.score.t is −0.3112.
Take `CCCCOc1ccc(OCCCN2CCOCC2)cc1` [Pramoxine hydrochloride]: the z.score.t is given as −1.058.
With `O=C(C1CCCCC1)N1CC(=O)N2CCc3ccccc3C2C1` (stereo not shown) [Praziquantel], the z.score.t is given as −0.5553.
As for `COc1cc2nc(N3CCN(C(=O)c4ccco4)CC3)nc(N)c2cc1OC` [Prazosin hydrochloride], the z.score.t is recorded as −0.496.
Turning to `CCOC(=O)O[C@]1(C(=O)COC(=O)CC)CC[C@H]2[C@@H]3CCC4=CC(=O)C=C[C@]4(C)[C@H]3[C@@H](O)C[C@@]21C` [Prednicarbate], the z.score.t is recorded as −0.7266.
For the compound `C[C@]12C=CC(=O)C=C1CC[C@@H]1[C@@H]2[C@@H](O)C[C@@]2(C)[C@H]1CC[C@]2(O)C(=O)CO` [Prednisolone], the z.score.t was found to be 1.287.
As for `C[C@]12C=CC(=O)C=C1CC[C@@H]1[C@@H]2C(=O)C[C@@]2(C)[C@H]1CC[C@]2(O)C(=O)CO` [Prednisone], the z.score.t is −0.6093.
Turning to `CC(=O)[C@H]1CC[C@H]2[C@@H]3CC=C4C[C@@H](O)CC[C@]4(C)[C@H]3CC[C@]12C` [Pregnenolone], the z.score.t is listed as −0.6864.
Turning to `CCCNC(C)C(=O)Nc1ccccc1C` (stereo not shown) [Prilocaine hydrochloride], the z.score.t was determined as 1.984.
The same measure, in the same setting: for `COc1cc(NC(C)CCCN)c2ncccc2c1` (stereo not shown) [Primaquine diphosphate] the value was −1.784; for `CCC1(c2ccccc2)C(=O)NCNC1=O` [Primidone], 0.2582.
Regarding `CCCC(C(=O)OCCN(CC)CC)(c1ccccc1)c1ccccc1` [Proadifen hydrochloride], the z.score.t was −1.138.
On the same count and under the same terms, the result for `CCCN(CCC)S(=O)(=O)c1ccc(C(=O)O)cc1` [Probenecid] reads −0.3319; that for `CC(C)(Sc1cc(C(C)(C)C)c(O)c(C(C)(C)C)c1)Sc1cc(C(C)(C)C)c(O)c(C(C)(C)C)c1` [Probucol], 0.1344; that for `CCN(CC)CCNC(=O)c1ccc(N)cc1` [Procainamide hydrochloride], −0.2904.
On to `CCN(CC)CCOC(=O)c1ccc(N)cc1` [Procaine hydrochloride], for which the z.score.t worked out at 0.5587.
The same measure, in the same setting: the result for `CNNCc1ccc(C(=O)NC(C)C)cc1` [Procarbazine hydrochloride] reads −0.01802; that for `CN1CCN(CCCN2c3ccccc3Sc3ccc(Cl)cc32)CC1` [Prochlorperazine dimaleate], −0.7775.
Take `OC(CCN1CCCC1)(c1ccccc1)C1CCCCC1` (stereo not shown) [Procyclidine hydrochloride]: the z.score.t is −0.0788.
Regarding `CC(=O)[C@H]1CC[C@H]2[C@@H]3CCC4=CC(=O)CC[C@]4(C)[C@H]3CC[C@]12C` [Progesterone], the z.score.t was 0.1767.
In the case of `CCCN(CCC)C(=O)C(CCC(=O)O)NC(=O)c1ccccc1` (stereo not shown) [Proglumide], the z.score.t is recorded as −0.8991.
For `[H]/N=C(\N/C(=N/[H])Nc1ccc(Cl)cc1)NC(C)C` [Proguanil hydrochloride], the z.score.t is recorded as −0.1187.
Still for that read-out and setting: for `CN(C)CCCN1c2ccccc2Sc2ccccc21` [Promazine hydrochloride] the value was −1.845; for `CC(CN1c2ccccc2Sc2ccccc21)N(C)C` (stereo not shown) [Promethazine hydrochloride], 1.578.
Take `CC(C)NCC(O)c1ccc2ccccc2c1` (stereo not shown) [Pronethalol hydrochloride]: the z.score.t is listed as −0.4684.
